For 14 compounds, IC50 results are on record in ChEMBL document CHEMBL4480413, “Cytotoxic Withanolides from the Roots of Indian Ginseng ( Withania somnifera)” (J Nat Prod, 2019).

Type in all cases: functional, cell-based
The test system of test [1] is A549. Description: Cytotoxicity against human A549 cells after 72 hrs by SRB assay.
Test [2] relates to SK-OV-3. Put plainly: Cytotoxicity against human SKOV3 cells after 72 hrs by SRB assay. (In general: Sulforhodamine B stains cellular protein and so reports cell mass.)
In test [3] the test system is SK-MEL-2. Put plainly: Cytotoxicity against human SK-MEL-2 cells after 72 hrs by SRB assay.
The test system of test [4] is HCT-15. Put plainly: Cytotoxicity against human HCT15 cells after 72 hrs by SRB assay.
The mark [5] stands for this setting: Homo sapiens, A549, 72 h, read-out: IC50.
Setting [6] is: Homo sapiens, SK-OV-3, 72 h, read-out: IC50.
The mark [7] stands for this setting: Homo sapiens, SK-MEL-2, 72 h, read-out: IC50.
[8] abbreviates: Homo sapiens, HCT-15, 72 h, read-out: IC50.

By IC50 is commonly meant the concentration needed to halve the response being measured. For `CC1=C(C)C(=O)O[C@@H]([C@](C)(O)[C@H]2CC[C@H]3[C@@H]4[C@H](O)C=C5CC=CC(=O)[C@]5(C)[C@H]4CC[C@]23C)C1`, the IC50 in test [1] (setting [5]) was > 10 µM; in test [2] (setting [6]), 7.9 µM; in test [3] (setting [7]), 3.4 µM; in test [4] (setting [8]), 5.1 µM.
With `CC1=C(C)C(=O)O[C@@H]([C@](C)(O)[C@H]2CC[C@H]3[C@@H]4[C@@H]5O[C@@H]5[C@@]5(O)CC=CC(=O)[C@]5(C)[C@H]4CC[C@]23C)C1` [WITHANOLIDE A], the IC50 result in test [1] (a549), in test [2] (sk-ov-3), in test [3] (sk-mel-2) and in test [4] (hct-15) was “Not Active” each time.
For the compound `CC1=C(C)C(=O)O[C@@H]([C@@H](C)[C@@]2(O)CC[C@H]3[C@@H]4[C@@H]5O[C@@H]5[C@@]5(O)CC=CC(=O)[C@]5(C)[C@H]4CC[C@@]32C)C1` [WITHANONE], the IC50 in test [1] (setting [5]) was > 10 µM; in test [2] (setting [6]), > 10 µM; in test [3] (setting [7]), 6.1 µM; in test [4] (setting [8]), 5.9 µM.
As for `CC(=O)O[C@@H]1C[C@H]2[C@@H]3[C@@H]4O[C@@H]4[C@@]4(O)CC=CC(=O)[C@]4(C)[C@H]3CC[C@]2(C)/C1=C(\C)[C@H]1CC(C)=C(CO)C(=O)O1`, the IC50 is > 10 µM in test [1] (setting [5]), > 10 µM in test [2] (setting [6]), 10 µM in test [3] (setting [7]) and 7.6 µM in test [4] (setting [8]).
Take `CC1=C(C)[C@H](O)[C@H]([C@](C)(O)[C@H]2CC[C@H]3[C@@H]4[C@@H]5O[C@@H]5[C@@]5(O)CC=CC(=O)[C@]5(C)[C@H]4CC[C@]23C)OC1=O`: the concentration for half-maximal inhibition (IC50) was > 10 µM in test [1] (setting [5]), > 10 µM in test [2] (setting [6]), 9.2 µM in test [3] (setting [7]) and 9.8 µM in test [4] (setting [8]).
In the case of `CC1=C(CO)C(=O)O[C@@H]([C@](C)(O)[C@H]2CC[C@H]3[C@@H]4[C@@H]5O[C@@H]5[C@@]5(O)CC=CC(=O)[C@]5(C)[C@H]4CC[C@]23C)C1`, the IC50 result in test [1] (a549), in test [2] (sk-ov-3), in test [3] (sk-mel-2) and in test [4] (hct-15) was “Not Active” each time.
Regarding `C[C@H]1C[C@H]([C@](C)(O)[C@H]2CC[C@H]3[C@@H]4[C@H](O)C=C5CC=CC(=O)[C@]5(C)[C@H]4CC[C@]23C)OC(=O)[C@@H]1C`, the IC50 in test [1] (setting [5]) is > 10 µM; in test [2] (setting [6]), 8.8 µM; in test [3] (setting [7]), 5.9 µM; in test [4] (setting [8]) it was 5.7 µM.
Regarding `C[C@H]([C@H]1C[C@H](C)[C@@H](C)C(=O)O1)[C@@]1(O)CC[C@H]2[C@@H]3[C@@H]4O[C@@H]4[C@@]4(O)CC=CC(=O)[C@]4(C)[C@H]3CC[C@@]21C`, the IC50 result in test [1] (a549), in test [2] (sk-ov-3), in test [3] (sk-mel-2) and in test [4] (hct-15) was “Not Active” throughout.
On to `CC1=C(C)C(=O)O[C@@H]([C@@H](C)[C@]2(O)CC[C@H]3[C@@H]4[C@@H]5O[C@@H]5[C@@]5(O)CC=CC(=O)[C@]5(C)[C@H]4CC[C@@]32C)C1`, for which the IC50 result in test [1] (a549), in test [2] (sk-ov-3), in test [3] (sk-mel-2) and in test [4] (hct-15) was “Not Active” in each case.
Consider `CC1=C(CO)C(=O)O[C@@H]([C@@H](C)[C@@]2(O)CC[C@H]3[C@@H]4[C@@H]5O[C@@H]5[C@@]5(O)CC=CC(=O)[C@]5(C)[C@H]4CC[C@@]32C)C1`, for which the 50% inhibitory concentration (IC50) result in test [1] (a549), in test [2] (sk-ov-3), in test [3] (sk-mel-2) and in test [4] (hct-15) was “Not Active” each time.
Take `COc1cc([C@@H]2c3cc4c(cc3[C@@H](O[C@@H]3O[C@@H]5CO[C@@H](C)O[C@H]5[C@H](O)[C@H]3O)[C@H]3COC(=O)[C@H]23)OCO4)cc(OC)c1O` [ETOPOSIDE]: the IC50 in test [1] (setting [5]) turned out to be 0.71 µM; in test [2] (setting [6]), 1.83 µM; in test [3] (setting [7]) it was 0.79 µM; in test [4] (setting [8]), 0.46 µM.
Regarding `CC1=C(CO)C(=O)O[C@@H](/C(C)=C2\[C@H](O)C[C@H]3[C@@H]4[C@@H]5O[C@@H]5[C@@]5(O)CC=CC(=O)[C@]5(C)[C@H]4CC[C@]23C)C1`, the IC50 result in test [1] (a549), in test [2] (sk-ov-3), in test [3] (sk-mel-2) and in test [4] (hct-15) was “Not Active” each time.
Take `C[C@H]1C[C@H]([C@](C)(O)[C@H]2CC[C@H]3[C@@H]4[C@@H]5O[C@@H]5[C@@]5(O)CC=CC(=O)[C@]5(C)[C@H]4CC[C@]23C)OC(=O)[C@@H]1C`: the IC50 entry in test [1] (a549), in test [2] (sk-ov-3), in test [3] (sk-mel-2) and in test [4] (hct-15) was “Not Active” throughout.
On to `CC1=C(C)C(=O)O[C@@H]([C@](C)(O)[C@@]2(O)CC[C@H]3[C@@H]4[C@@H]5O[C@@H]5[C@@]5(O)CC=CC(=O)[C@]5(C)[C@H]4CC[C@@]32C)C1`, for which the IC50 result in test [1] (a549), in test [2] (sk-ov-3), in test [3] (sk-mel-2) and in test [4] (hct-15) was “Not Active” in each case.
